For five molecules, Kd results are on record in ChEMBL document CHEMBL1150977, “A quantitative analysis of kinase inhibitor selectivity” (Nat Biotechnol, 2008).

Experiment [1] concerns the target Mitogen-activated protein kinase kinase kinase 20 (Homo sapiens, UniProt Q9NYL2).
In experiment [2] the target is T1, Tyrosine-protein kinase JAK3 (Homo sapiens, UniProt P52333).
T1 sequence (P52333 whole entry): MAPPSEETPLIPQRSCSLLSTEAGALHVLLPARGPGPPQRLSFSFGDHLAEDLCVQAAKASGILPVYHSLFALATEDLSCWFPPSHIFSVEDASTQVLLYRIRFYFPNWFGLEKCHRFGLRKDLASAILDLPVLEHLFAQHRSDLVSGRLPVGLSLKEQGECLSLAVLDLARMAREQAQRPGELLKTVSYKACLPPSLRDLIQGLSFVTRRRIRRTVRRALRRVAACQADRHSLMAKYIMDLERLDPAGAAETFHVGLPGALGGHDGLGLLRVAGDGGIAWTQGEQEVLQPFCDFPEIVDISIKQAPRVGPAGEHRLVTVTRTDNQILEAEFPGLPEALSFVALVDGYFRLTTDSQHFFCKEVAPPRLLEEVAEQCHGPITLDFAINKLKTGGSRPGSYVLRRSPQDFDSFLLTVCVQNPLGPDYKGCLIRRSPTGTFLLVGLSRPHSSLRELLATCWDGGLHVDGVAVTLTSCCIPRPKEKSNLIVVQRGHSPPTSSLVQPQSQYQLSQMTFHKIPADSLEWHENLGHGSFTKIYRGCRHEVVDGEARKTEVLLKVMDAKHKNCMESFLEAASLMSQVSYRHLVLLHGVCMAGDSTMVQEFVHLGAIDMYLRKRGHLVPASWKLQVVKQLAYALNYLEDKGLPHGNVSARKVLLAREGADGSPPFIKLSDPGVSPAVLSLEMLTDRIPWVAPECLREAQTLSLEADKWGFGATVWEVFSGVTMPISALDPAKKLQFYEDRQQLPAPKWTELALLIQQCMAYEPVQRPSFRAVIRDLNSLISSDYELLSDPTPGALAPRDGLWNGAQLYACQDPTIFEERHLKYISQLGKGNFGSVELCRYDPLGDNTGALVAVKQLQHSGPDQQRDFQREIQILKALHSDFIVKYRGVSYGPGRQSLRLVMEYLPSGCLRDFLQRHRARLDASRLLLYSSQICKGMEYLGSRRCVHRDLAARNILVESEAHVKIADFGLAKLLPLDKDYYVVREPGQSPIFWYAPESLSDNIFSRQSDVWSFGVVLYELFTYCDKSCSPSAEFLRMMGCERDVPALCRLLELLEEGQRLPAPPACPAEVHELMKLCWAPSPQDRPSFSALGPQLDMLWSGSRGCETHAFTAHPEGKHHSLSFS

The target in experiment [3] is T2, Muscle, skeletal receptor tyrosine-protein kinase (Homo sapiens, UniProt O15146).
T2 sequence (O15146 whole entry): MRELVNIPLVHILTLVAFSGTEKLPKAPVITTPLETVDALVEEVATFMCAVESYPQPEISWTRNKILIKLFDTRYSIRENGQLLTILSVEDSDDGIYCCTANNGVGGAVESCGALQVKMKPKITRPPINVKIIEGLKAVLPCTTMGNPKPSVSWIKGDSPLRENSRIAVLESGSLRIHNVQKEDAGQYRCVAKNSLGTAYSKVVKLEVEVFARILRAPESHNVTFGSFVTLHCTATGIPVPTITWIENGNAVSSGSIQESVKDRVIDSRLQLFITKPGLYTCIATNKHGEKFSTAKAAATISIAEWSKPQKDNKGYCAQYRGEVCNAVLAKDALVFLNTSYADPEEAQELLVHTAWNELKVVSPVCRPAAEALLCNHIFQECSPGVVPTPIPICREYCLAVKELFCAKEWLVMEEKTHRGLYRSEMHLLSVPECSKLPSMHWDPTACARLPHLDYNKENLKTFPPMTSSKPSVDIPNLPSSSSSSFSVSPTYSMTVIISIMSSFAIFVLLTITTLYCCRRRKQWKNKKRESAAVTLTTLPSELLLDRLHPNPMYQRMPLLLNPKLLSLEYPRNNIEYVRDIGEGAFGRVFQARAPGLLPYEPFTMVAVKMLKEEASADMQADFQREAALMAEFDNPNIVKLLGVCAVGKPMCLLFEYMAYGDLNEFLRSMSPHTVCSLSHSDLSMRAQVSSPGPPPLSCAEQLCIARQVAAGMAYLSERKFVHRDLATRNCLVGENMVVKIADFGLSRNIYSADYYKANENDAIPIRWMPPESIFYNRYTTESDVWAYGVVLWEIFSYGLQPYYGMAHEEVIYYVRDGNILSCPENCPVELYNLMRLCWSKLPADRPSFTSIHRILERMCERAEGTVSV

Experiment [4] has as its target Mitogen-activated protein kinase 14 (Homo sapiens, UniProt Q16539).
Experiment [5] deals with T3, Mitogen-activated protein kinase 12 (Homo sapiens, UniProt P53778).
T3 sequence (P53778 whole entry): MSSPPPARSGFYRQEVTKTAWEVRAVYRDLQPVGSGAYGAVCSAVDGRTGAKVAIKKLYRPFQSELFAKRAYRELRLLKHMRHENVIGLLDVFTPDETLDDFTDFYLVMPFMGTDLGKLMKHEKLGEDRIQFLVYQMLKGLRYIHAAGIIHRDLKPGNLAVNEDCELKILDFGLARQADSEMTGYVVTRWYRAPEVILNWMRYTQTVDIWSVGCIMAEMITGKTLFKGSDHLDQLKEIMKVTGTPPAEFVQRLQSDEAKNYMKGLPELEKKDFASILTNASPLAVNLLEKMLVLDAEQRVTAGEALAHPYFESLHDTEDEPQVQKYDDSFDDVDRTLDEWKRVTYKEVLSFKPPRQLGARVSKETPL

Experiment [6] concerns the target Serine/threonine-protein kinase pim-2 (Homo sapiens, UniProt Q9P1W9).
For experiment [7], the target named is Tyrosine-protein kinase SYK (Homo sapiens, UniProt P43405).
For experiment [8], the target named is Epidermal growth factor receptor (Homo sapiens, UniProt P00533, L747-T751DEL).
Experiment [9] deals with Epidermal growth factor receptor (Homo sapiens, UniProt P00533).
The target in experiment [10] is Epidermal growth factor receptor (Homo sapiens, UniProt P00533, G719C).
Experiment [11] concerns the target Epidermal growth factor receptor (Homo sapiens, UniProt P00533, E746-A750DEL).
The target in experiment [12] is Epidermal growth factor receptor (Homo sapiens, UniProt P00533, L858R).
For experiment [13], the target named is Epidermal growth factor receptor (Homo sapiens, UniProt P00533, L747-S752DEL/P753S).

Consider `COCC(=O)NC/C=C/c1ccc2ncnc(Nc3ccc(Oc4ccc(C)nc4)c(C)c3)c2c1` [CP-724714], for which the Kd in experiment [1], in experiment [2], in experiment [3], in [4], in [5] and in experiment [6] was over 10 µM each time. In [7], this molecule registered a Kd of over 10 µM.
As for `Nc1nc(Nc2ccc(S(N)(=O)=O)cc2)nn1C(=O)c1c(F)cccc1F` [JNJ-7706621], the Kd in experiment [8], in [1], in experiment [3], in experiment [9], in [10] and in experiment [11] was over 10 µM throughout. Further, the Kd in experiment [5], in [6], in [12] and in experiment [13] was over 10 µM each time.
For `CCOc1cc2ncc(C#N)c(Nc3ccc(F)c(Cl)c3)c2cc1NC(=O)/C=C/CN(C)C` [PELITINIB], the Kd in [1] is 1.2 µM; in [2], 0.025 µM; in experiment [3] it was over 10 µM; in experiment [4], over 10 µM; in [5], over 10 µM; in [6], over 10 µM. The molecule further came in with a Kd in experiment [7] of 7.2 µM.
`Oc1ccc(-c2nc(-c3ccncc3)c(-c3ccc(F)cc3)[nH]2)cc1` [SB-202190]: the dissociation constant Kd in [1], in [2], in [3], in experiment [6] and in [7] was over 10 µM throughout.
Take `NC(=O)c1ccc(-c2nc(-c3ccc4c(c3)OCO4)c(-c3ccccn3)[nH]2)cc1` [SB-431542]: the Kd in [8], in [1], in experiment [2], in [3], in [9] and in experiment [10] was over 10 µM throughout. The Kd in experiment [11], in [5], in [6], in experiment [7], in experiment [12] and in experiment [13] was over 10 µM throughout.
